Measurements taken from patent publication US20260015360A1 (MOMA Therapeutics, Inc., priority 2023, published 2026).

Assays:
DLD1 WT cells = assay: DLD1 viability assay (CellTiter-Glo, 7 days), DLD1 WT; format: cell-based; conditions: Homo sapiens, DLD-1, 168 h
[1] = molecular target: T1, biotinylated Avi-POLΘ[2-894] (Homo sapiens, UniProt O75417); assay: ATPase assay (ADP-Glo): POLΘ-mediated ATP hydrolysis; conditions: read-out: Biochemical ATPase ADPGlo IC50
T1 construct: 1 nM biotinylated Avi-POLΘ[2-894]

DLD1 BRCA2 (−/−) cells = assay: DLD1 viability assay (CellTiter-Glo, 7 days), DLD1 BRCA2 (−/−); format: cell-based; conditions: Homo sapiens, DLD-1, 168 h, read-out: Viability IC50 (μM) DLD1 BRCA2 null

T1 sequence (O75417 2-894 limits assumed): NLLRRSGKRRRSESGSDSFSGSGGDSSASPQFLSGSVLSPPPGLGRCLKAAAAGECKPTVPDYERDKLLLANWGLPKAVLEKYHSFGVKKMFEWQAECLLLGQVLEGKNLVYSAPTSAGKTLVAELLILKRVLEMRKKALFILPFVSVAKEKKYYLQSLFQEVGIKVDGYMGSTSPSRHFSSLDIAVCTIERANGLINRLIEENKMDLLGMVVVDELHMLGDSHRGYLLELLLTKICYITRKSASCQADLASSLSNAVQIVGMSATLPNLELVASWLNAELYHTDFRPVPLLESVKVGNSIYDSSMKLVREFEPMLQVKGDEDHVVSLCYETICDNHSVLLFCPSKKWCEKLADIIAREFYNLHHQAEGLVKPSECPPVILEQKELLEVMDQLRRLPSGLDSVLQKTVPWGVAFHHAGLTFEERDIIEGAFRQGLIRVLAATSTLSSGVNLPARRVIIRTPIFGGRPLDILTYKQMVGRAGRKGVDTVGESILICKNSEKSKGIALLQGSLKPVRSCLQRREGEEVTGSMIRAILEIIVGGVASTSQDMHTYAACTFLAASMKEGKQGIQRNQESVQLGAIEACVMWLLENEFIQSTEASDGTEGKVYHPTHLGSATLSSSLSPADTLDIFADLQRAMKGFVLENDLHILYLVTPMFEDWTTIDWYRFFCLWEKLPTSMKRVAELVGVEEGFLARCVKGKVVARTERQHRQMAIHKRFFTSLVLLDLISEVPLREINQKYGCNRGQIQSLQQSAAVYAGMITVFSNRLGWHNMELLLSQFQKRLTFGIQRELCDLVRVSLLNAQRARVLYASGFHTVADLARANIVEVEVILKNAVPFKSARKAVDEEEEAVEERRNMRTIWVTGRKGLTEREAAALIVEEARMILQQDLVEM

Row | IC50 (DLD1 WT cells) | IC50 [1] | IC50 (DLD1 BRCA2 (−/−) cells) | SMILES
1 | 2.5 to 5 µM | 1 to 15 nM | 0.001 to 0.1 µM | COc1cnc(Cl)cc1-c1cc(C)ncc1C(=O)Nc1nc2ncc(N3CCC(O)(C(F)(F)F)CC3)nc2s1 [Example 511, 2′-chloro-N-(6-(4-hydroxy-4-(trifluoromethyl)piperidin-1-yl)thiazolo[4,5-b]pyrazin-2-yl)-5′-methoxy-6-methyl-[4,4′-bipyridine]-3-carboxamide]
2 | > 10 µM | 1 to 15 nM | 0.001 to 0.1 µM | COc1cnc(Cl)cc1-c1cc(C)ncc1C(=O)Nc1nc2ncc(C3CCOCC3)nc2s1 [Example 512, 2′-chloro-5′-methoxy-6-methyl-N-(6-(tetrahydro-2H-pyran-4-yl)thiazolo[4,5-b]pyrazin-2-yl)-[4,4′-bipyridine]-3-carboxamide]
3 | > 10 µM | 1 to 15 nM | 0.001 to 0.1 µM | COc1cnc(Cl)cc1-c1cc(C)ncc1C(=O)Nc1nc2ncc(N3CCC(OC)CC3)nc2s1 [Example 514, 2′-chloro-5′-methoxy-N-(6-(4-methoxypiperidin-1-yl)thiazolo[4,5-b]pyrazin-2-yl)-6-methyl-[4,4′-bipyridine]-3-carboxamide]
